Source: patent US8618169B2, “Derivatives of N-phenylanthranilic acid and 2-benzimidazolone as potassium channel and/or neuron activity modulators” (Ramot at Tel-Aviv University Ltd., priority 2002, dated 2013)

Assays:
Type in all cases: cell-based
F-11 neuronal cells = test: Spiking activity and membrane potential of F-11 neuronal cells, current-clamp; settings: 10 μM
Procedure: F-11 neuronal cells were similarly cultured in F-12 Ham media containing 2 mM 1-glutamine supplemented with 10% fetal bovine serum, HAT supplement and antibiotics.
For current measurements in CHO cells, recordings were performed 40 hours following transfection, using the whole-cell configuration of the patch-clamp technique [Hamill et al., Nature 294: 462-464 (1981)]. Signals were amplified using an Axopatch 200B patch-clamp amplifier (Axon Instruments, Foster City, Calif., USA), sampled at 2 kHz and filtered at 800 Hz via a 4-pole Bessel low pass filter. Data were acquired using pClamp 8.1 software (Axon Instruments, Foster City, Calif., USA) and an Elonex Pentium III computer in conjunction with a DigiData 1322A interface (Axon Instruments, Foster City, Calif., USA). The patch pipettes were pulled from borosilicate glass (Warner Instrument. Corp., Hamden, Conn., USA) with a resistance of 2-5 MΩ and were filled with (in mM): 130 KCl, 1 MgCl2, 5 K2ATP, 5 EGTA, 10 HEPES, adjusted with KOH at pH 7.4 (290 mOsm). The external solution contained (in [mM]): 140 NaCl, 4 KCl, 1.8 CaCl2, 1.2 MgCl2, 11 glucose, 5.5 HEPES, adjusted with NaOH at pH 7.4 (310 mOsm). Series resistances (3-13 MΩ) were compensated (75-90%) and periodically monitored. For current-clamp measurements of rat cortical neurons, recordings were performed 10-14 days after plating, while rat DRG neurons recordings were performed 3 days after plating. The patch pipettes were filled with (in [mM]): 135 KCl, 1 K2ATP, 1 MgATP, 2 EGTA, 1.1 CaCl2, 5 glucose, 10 HEPES, adjusted with KOH at pH 7.4 (315 mOsm). The external solution contained (in [mM]): 140 NaCl, 4 KCl, 2 CaCl2, 2 MgCl2, 5 glucose, 10 HEPES, adjusted with NaOH at pH 7.4 (325 mOsm). For evoking the neuronal action potentials, 50-300 pA currents were injected into the cells for 800 ms (square pulse). Recordings were sampled at 5 kHz and filtered at 2 KHz via a 4-pole Bessel low pass filter. […]

CA1 pyramidal neurons = test: Bursting and spike ADP of CA1 pyramidal neurons in rat hippocampal slices, current-clamp
Procedure: Using selective blockers and openers, it was recently shown that M-channels critically modulate the firing pattern of pyramidal hippocampal neurons by controlling the strength, duration and escalation into bursts of spike after depolarization (Yue and Yaari J. Neurosci., 24(19):4614-24, 2004).
To evaluate the effect of Compound 6 on the spike ADP, a brief depolarizing current pulse was injected to the neurons to elicit a solitary spike.

COX (Cyclooxygenase) = test: COX activity assay in C-26 cells (PGE2 radioimmunoassay)
Procedure: C-26 cells were plated on 24-well plates using RPMI medium. Different concentrations of the tested compound were added thereto and the cells were incubated for 30 minutes at 37° C. 30 μM exogenic arachidonic acid was then added and incubation was continued for 20 minutes (37° C.), so as to allow the cells to synthesize PGE2. Indomethacin was added thereafter (10 μM), to stop and completely block the activity. Then, the upper solution was removed into clean 24-wells. To the remained cells 100 μl NaOH (1M) were added to induce cytolysis, and the cells were left for later protein measurement. The solution removed to the new 24-well was used for a radioimmunoassay. The COX activity was estimated by calculating the ng PGE2/mg protein parameter.

Compound: O=C(Cc1ccccc1Nc1c(Cl)cccc1Cl)NCCOCCO [Compound 6]
- effect on spikes generated in F-11 cells (F-11 neuronal cells): completely and reversibly blocks
- hyperpolarization of the membrane potential (F-11 neuronal cells): 9±3 mV
- membrane potential of the F-11 neuronal cell with compound (F-11 neuronal cells; FIG. 26, from −59 mV): −67 mV
- effect on burst spiking (CA1 pyramidal neurons; 25 μM, long suprathreshold depolarizing current pulses): suppression of the burst
- ADP size with compound (CA1 pyramidal neurons; solitary spike, control 193.8±49.7 mV msec): 117.1±40.6 mV msec
- COX inhibition activity (in words) (COX (Cyclooxygenase)): do not exhibit COX inhibition activity
- IC50 (COX (Cyclooxygenase); C-26 cells): > 30 µM
- effect on COX activity (COX (Cyclooxygenase); concentration of up to 10 μM): did not block
